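Interpolation was linear, between the two tested concentrations surrounding the appropriate level; five concentrations were tested over 48 hours in 96-well plates. GI50 is the concentration that inhibits growth by half.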 Activity calls are given as the source filed them. Cut-off read from the data, not from the text of the source: active = GI50 up to about 1.1 µM and inactive = higher.
Assays:
Assay in all cases: NCI anticancer screen, dose series, 48 h
SN12C = tested on: SN12C
Hs-578T = tested on: Hs-578T
MDA-MB-435 = tested on: MDA-MB-435
NCI-H226 = tested on: NCI-H226
BT-549 = tested on: BT-549
MOLT-4 = tested on: MOLT-4
U-251 = tested on: U-251
UACC-62 = tested on: UACC-62
UACC-257 = tested on: UACC-257
SNB-75 = tested on: SNB-75
A498 = tested on: A498
HL-60 = tested on: HL-60
MCF7 = tested on: MCF7
SK-OV-3 = tested on: SK-OV-3
T47D = tested on: T47D
PC-3 = tested on: PC-3
RPMI-8226 = tested on: RPMI-8226
NCI/ADR-RES = tested on: NCI/ADR-RES
LOX IMVI = tested on: LOX IMVI
MDA-N = tested on: MDA-N
HT-29 = tested on: HT-29
HCT-116 = tested on: HCT-116
HOP-92 = tested on: HOP-92
SNB-19 = tested on: SNB-19
MDA-MB-231 = tested on: MDA-MB-231
HCT-15 = tested on: HCT-15
CAKI-1 = tested on: CAKI-1
A549 = tested on: A549
K562 = tested on: K562
786-0 = tested on: 786-0
IGROV-1 = tested on: IGROV-1
EKVX = tested on: EKVX
DU-145 = tested on: DU-145
NCI-H23 = tested on: NCI-H23
NCI-H460 = tested on: NCI-H460
SK-MEL-28 = tested on: SK-MEL-28
SF-295 = tested on: SF-295
OVCAR-4 = tested on: OVCAR-4
HOP-62 = tested on: HOP-62
SK-MEL-5 = tested on: SK-MEL-5
COLO 205 = tested on: COLO 205
SW-620 = tested on: SW-620
Malme-3M = tested on: Malme-3M
M14 = tested on: M14
NCI-H522 = tested on: NCI-H522
ACHN = tested on: ACHN
SK-MEL-2 = tested on: SK-MEL-2
TK-10 = tested on: TK-10
UO-31 = tested on: UO-31
SF-539 = tested on: SF-539
OVCAR-8 = tested on: OVCAR-8
CCRF-CEM = tested on: CCRF-CEM
OVCAR-5 = tested on: OVCAR-5
SF-268 = tested on: SF-268
RXF 393 = tested on: RXF 393
OVCAR-3 = tested on: OVCAR-3
SR = tested on: SR
KM12 = tested on: KM12
HCC 2998 = tested on: HCC 2998

Cn1c(=O)c2c(nc(C(=N)SCC(=O)O)n2C)n(C)c1=O
GI50 (SN12C): 45.9 µM (inactive) | GI50 (Hs-578T): 97.7 µM (inactive) | GI50 (MDA-MB-435): 29.2 µM (inactive) | GI50 (NCI-H226): 58.9 µM (inactive) | GI50 (BT-549): 41.1 µM (inactive) | GI50 (MOLT-4): 22.2 µM (inactive) | GI50 (U-251): 95.9 µM (inactive) | GI50 (UACC-62): 34.4 µM (inactive) | GI50 (UACC-257): 29.1 µM (inactive) | GI50 (SNB-75): 41.2 µM (inactive) | GI50 (A498): 26.9 µM (inactive) | GI50 (HL-60): 27.7 µM (inactive) | GI50 (MCF7): 38.5 µM (inactive) | GI50 (SK-OV-3): 61.8 µM (inactive) | GI50 (T47D): 33.2 µM (inactive) | GI50 (PC-3): 48.4 µM (inactive) | GI50 (RPMI-8226): 42.2 µM (inactive) | GI50 (NCI/ADR-RES): 33.3 µM (inactive) | GI50 (LOX IMVI): 48.1 µM (inactive) | GI50 (MDA-N): 36.2 µM (inactive) | GI50 (HT-29): 48.2 µM (inactive) | GI50 (HCT-116): 26.5 µM (inactive) | GI50 (HOP-92): 36.6 µM (inactive) | GI50 (SNB-19): 52.7 µM (inactive) | GI50 (MDA-MB-231): > 100 µM (inactive) | GI50 (HCT-15): 31.8 µM | GI50 (CAKI-1): 26 µM (inactive) | GI50 (A549): 39.5 µM (inactive) | GI50 (K562): 27 µM (inactive) | GI50 (786-0): 45.7 µM (inactive) | GI50 (IGROV-1): 47 µM (inactive) | GI50 (EKVX): 29.1 µM (inactive) | GI50 (DU-145): 61.2 µM (inactive) | GI50 (NCI-H23): 27.7 µM (inactive) | GI50 (NCI-H460): 29.6 µM (inactive) | GI50 (SK-MEL-28): 37.7 µM (inactive) | GI50 (SF-295): 52.7 µM (inactive) | GI50 (OVCAR-4): 24.4 µM (inactive) | GI50 (HOP-62): 56.5 µM (inactive) | GI50 (SK-MEL-5): 16 µM (inactive) | GI50 (COLO 205): 31.3 µM (inactive) | GI50 (SW-620): 52.1 µM (inactive) | GI50 (Malme-3M): 45.1 µM (inactive) | GI50 (M14): 43.5 µM (inactive) | GI50 (NCI-H522): 41.9 µM (inactive) | GI50 (ACHN): 41 µM (inactive) | GI50 (SK-MEL-2): 39.2 µM (inactive) | GI50 (TK-10): 40.6 µM (inactive) | GI50 (UO-31): 41.8 µM (inactive) | GI50 (SF-539): 32.8 µM (inactive) | GI50 (OVCAR-8): 42.7 µM (inactive) | GI50 (CCRF-CEM): 5.57 µM (inactive) | GI50 (OVCAR-5): 47.5 µM (inactive) | GI50 (SF-268): 39.3 µM (inactive) | GI50 (RXF 393): 53.1 µM (inactive) | GI50 (OVCAR-3): 43.5 µM (inactive) | GI50 (SR): 22.7 µM (inactive) | GI50 (KM12): 34.5 µM (inactive)

Cc1cccc(/C=N/NC(=S)N(C)CCc2ccccn2)n1
GI50 (SN12C): 0.378 µM (active) | GI50 (Hs-578T): > 33 µM (inactive) | GI50 (MDA-MB-435): 0.521 µM (active) | GI50 (NCI-H226): 0.39 µM (active) | GI50 (BT-549): 0.857 µM (active) | GI50 (MOLT-4): 0.0647 µM (active) | GI50 (U-251): 0.347 µM (active) | GI50 (UACC-62): 0.287 µM (active) | GI50 (UACC-257): 0.448 µM (active) | GI50 (SNB-75): 0.483 µM (active) | GI50 (A498): 0.285 µM (active) | GI50 (HL-60): 0.0429 µM (active) | GI50 (MCF7): 0.42 µM (active) | GI50 (SK-OV-3): 0.541 µM (active) | GI50 (T47D): 0.123 µM (active) | GI50 (PC-3): 0.288 µM (active) | GI50 (RPMI-8226): 0.104 µM (active) | GI50 (NCI/ADR-RES): 0.269 µM (active) | GI50 (LOX IMVI): 0.207 µM (active) | GI50 (MDA-N): 0.473 µM (active) | GI50 (HT-29): 0.265 µM (active) | GI50 (HCT-116): 0.256 µM (active) | GI50 (HOP-92): 0.38 µM (active) | GI50 (SNB-19): 0.729 µM (active) | GI50 (MDA-MB-231): 1.16 µM (inactive) | GI50 (HCT-15): 0.196 µM | GI50 (CAKI-1): 0.421 µM (active) | GI50 (A549): 0.417 µM (active) | GI50 (K562): 0.163 µM (active) | GI50 (786-0): 0.281 µM (active) | GI50 (IGROV-1): 0.366 µM (active) | GI50 (EKVX): 0.391 µM (active) | GI50 (DU-145): 0.236 µM (active) | GI50 (NCI-H23): 0.467 µM (active) | GI50 (NCI-H460): 0.267 µM (active) | GI50 (SK-MEL-28): 0.501 µM (active) | GI50 (SF-295): 0.383 µM (active) | GI50 (OVCAR-4): 22.9 µM (inactive) | GI50 (HOP-62): 0.32 µM (active) | GI50 (SK-MEL-5): 0.314 µM (active) | GI50 (COLO 205): 0.183 µM (active) | GI50 (SW-620): 0.361 µM (active) | GI50 (Malme-3M): 0.361 µM (active) | GI50 (M14): 0.329 µM (active) | GI50 (NCI-H522): 0.214 µM (active) | GI50 (ACHN): 0.191 µM (active) | GI50 (SK-MEL-2): 0.661 µM (active) | GI50 (TK-10): 15.2 µM (inactive) | GI50 (UO-31): 0.271 µM (active) | GI50 (HCC 2998): 0.453 µM (active) | GI50 (SF-539): 0.407 µM (active) | GI50 (OVCAR-8): 0.336 µM (active) | GI50 (CCRF-CEM): 0.0288 µM (active) | GI50 (OVCAR-5): 4.93 µM (inactive) | GI50 (SF-268): 0.278 µM (active) | GI50 (OVCAR-3): 0.0853 µM (active) | GI50 (SR): 0.246 µM (active) | GI50 (KM12): 0.687 µM (active)

From ChEMBL document CHEMBL1201862, “PubChem BioAssay data set” (2004)
